Tests used:
Assay type in all cases: cell-based, human
CTGF, fibronectin [1] = test: Western blot of irradiated HFL-1 cells treated with HMG-CoA inhibitors; conditions: simvastatin pretreatment 6 hours, 5 Gy, three days, FIG. 8B
Method: For statin treatment experiments, cells were grown overnight in 35 mm plates (6-well plates were also used in some studies) to form a 75-80% confluent monolayer. The cells were then washed with PBS, and the media was changed to SFM (800 μL).
Harvesting Culture Media and Cell Lystates. For analysis of extracellular CTGF, fibronectin, and α-tubulin, cell culture media was collected, centrifuged to remove cellular debris, aliquoted, and frozen at −70° C. until ready for use. For analysis of intracellular CTGF, fibronectin, and α-tubulin, cell lysates were harvested using 200 μL of HBSST lysis buffer (HBSS containing 1 mM MgSO4, 1 mM CaCl2, 4 mM NaHCO3, 0.5% Triton X-100, protease inhibitor cocktail). Cellular debris was removed by centrifugation.
Western blot analysis of HFL-1 whole cell proteins. […] Primary antibodies for CTGF and fibronectin were diluted at 1:600 and were incubated at 4° C. overnight with shaking. Primary antibodies for α-tubulin were diluted at 1:4,000 and were incubated at 4° C. overnight with shaking. Corresponding secondary antibodies were diluted at 1:6,000 and were incubated at room temperature for 1 hour with shaking. After washing the blot, the antibodies were detected by the enhanced chemiluminescence method (PerkinElmer Life Sciences Inc.).
Cells were harvested, and cell lysates were separated by SDS-PAGE. The separated proteins were then transferred to nitrocellulose, and Western immunoblotting was performed with antibodies specific for CTGF, fibronectin, and α-tubulin. […] As a control for protein loading, α-tubulin expression in HFL-1 cells was also determined.
Cells were harvested, and cell lysates were separated by SDS-PAGE. The separated proteins were then transferred to nitrocellulose, and Western immunoblotting was performed with antibodies specific for CTGF, fibronectin, and α-tubulin. FIG. 8C is a Western blot of HFL-1 cells exposed to radiation and treated with HMG-CoA inhibitors.

CTGF, fibronectin [2] = test: Western blot of HDF cells treated with TGF-β1 and simvastatin; conditions: 10 ng/ml TGF-β1 plus simvastatin, three days, FIG. 10B
Method: (§1) Cell Culture and Treatment. Normal human fetal lung fibroblasts (HFL-1) were purchased from the American Type Culture Collection (ATCC Number: CCL-153) and cultured in Ham's F12K medium (American Type Culture Collection) supplemented with 2 mM L-glutamine adjusted to contain 1.5 g/L sodium bicarbonate and 10% fetal bovine serum. Cells were maintained in humidified 5% CO2 at 37° C. Human dermal fibroblasts (HDF), derived from the dermis of normal human adult skin, were purchased from Invitrogen, Inc. and cultured in Medium-106 (Invitrogen, Inc., Catalogue No. M-106-500) containing LSGS Kit (Invitrogen, Inc., Catalogue No. S-003-K) prior to use. […]
(§2) Harvesting Culture Media and Cell Lystates. For analysis of extracellular CTGF, fibronectin, and α-tubulin, cell culture media was collected, centrifuged to remove cellular debris, aliquoted, and frozen at −70° C. until ready for use. […]
(§3) Western blot analysis of HFL-1 whole cell proteins. […] After washing the blot, the antibodies were detected by the enhanced chemiluminescence method (PerkinElmer Life Sciences Inc.).
(§4) The separated proteins were then transferred to nitrocellulose, and Western immunoblotting was performed with antibodies specific for CTGF, fibronectin, and α-tubulin. […] As a control for protein loading, α-tubulin expression in HFL-1 cells was also determined.

CTGF, fibronectin [3] = test: Western blot of HFL-1 cells treated with TGF-β1 and simvastatin; conditions: TGF-β1 plus simvastatin, three days, FIG. 7B
Method: as §1, §2, §3, §4

## CCC(C)(C)C(=O)O[C@H]1C[C@@H](C)C=C2C=C[C@H](C)[C@H](CC[C@@H]3C[C@@H](O)CC(=O)O3)[C@H]21 [simvastatin, 2,2-dimethyl-butanoic acid(1S,3R,7S,8S,8aR)-1,2,3,7,8,8a-hexahydro-3,7-dimethyl-8-[2-[(2R,4R)-tetrahydro-4-hydroxy-6-oxo-2H-pyran-2-yl]ethyl]-1-naphthalenylester]
CTGF, fibronectin [1]
  fibronectin protein expression: decrease in protein expression or fibronectin
CTGF, fibronectin [2]
  fibronectin protein expression: decrease in protein expression of fibronectin
CTGF, fibronectin [3]
  fibronectin protein expression: decrease in protein expression or fibronectin
